Test results: ChEMBL document CHEMBL4706528, “The design, synthesis and anti-tumor mechanism study of new androgen receptor degrader” (Eur J Med Chem, 2020)
Activity calls are given as the source filed them. No cut-off for these calls is given here.

Tests used:
LNCaP [1] = assay: Induction of apoptosis in human LNCaP cells assessed as total apoptotic cells at 10 uM incubated for 24 hrs by Annexin V/PI staining staining based flow cytometry (reference value: 2.76%); assay type: functional
[2] = molecular target: Prostate-specific antigen (Homo sapiens) (UniProt P07288); assay: Induction of downregulation of PSA (unknown orgin) human LNCaP cells at 2 uM after 24 hrs by Western blot analysis
LNCaP [3] = assay: Induction of cell cycle arrest in human LNCaP cells assessed as accumulation at G2 phase at 1 micromol/L after 24 hrs by RNase A/PI-staining based flow cytometric analysis (reference value: 20.87%); assay type: functional; conditions: dose 1 µmol/L, at 1 µM
[4] = molecular target: T1, Androgen receptor (Homo sapiens) (UniProt P10275); assay: Selective androgen receptor degradation activity at androgen receptor in human LNCaP cells assessed as down regulation of protein level at 10 uM after 24 hrs by Western blot analysis; assay type: cell-based
T1 sequence (whole entry): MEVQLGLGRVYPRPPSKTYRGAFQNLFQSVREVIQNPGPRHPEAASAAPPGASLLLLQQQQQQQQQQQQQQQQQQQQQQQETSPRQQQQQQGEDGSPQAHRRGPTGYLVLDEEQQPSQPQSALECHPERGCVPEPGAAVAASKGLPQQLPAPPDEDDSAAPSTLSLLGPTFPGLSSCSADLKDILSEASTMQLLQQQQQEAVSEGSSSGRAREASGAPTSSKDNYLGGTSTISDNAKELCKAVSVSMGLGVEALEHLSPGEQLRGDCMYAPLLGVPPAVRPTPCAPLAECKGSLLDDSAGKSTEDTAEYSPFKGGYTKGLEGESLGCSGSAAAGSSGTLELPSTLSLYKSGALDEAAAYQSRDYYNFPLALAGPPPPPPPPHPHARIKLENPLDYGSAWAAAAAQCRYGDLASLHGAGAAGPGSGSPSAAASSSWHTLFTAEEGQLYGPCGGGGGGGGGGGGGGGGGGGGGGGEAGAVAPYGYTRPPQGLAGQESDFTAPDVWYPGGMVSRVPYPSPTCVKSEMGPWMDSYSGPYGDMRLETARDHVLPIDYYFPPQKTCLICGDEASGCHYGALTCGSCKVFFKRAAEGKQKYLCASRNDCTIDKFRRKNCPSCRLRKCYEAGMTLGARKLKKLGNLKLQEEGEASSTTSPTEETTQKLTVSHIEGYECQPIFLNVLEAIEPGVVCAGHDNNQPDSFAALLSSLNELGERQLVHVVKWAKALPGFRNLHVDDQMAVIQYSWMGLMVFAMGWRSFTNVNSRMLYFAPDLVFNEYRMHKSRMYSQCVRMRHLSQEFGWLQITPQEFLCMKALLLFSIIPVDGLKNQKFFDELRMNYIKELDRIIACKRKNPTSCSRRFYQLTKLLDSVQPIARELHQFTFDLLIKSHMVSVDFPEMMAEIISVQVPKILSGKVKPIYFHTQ

LNCaP [5] = assay: Induction of cell cycle arrest in human LNCaP cells assessed as accumulation at S phase at 2 micromol/L after 24 hrs by RNase A/PI-staining based flow cytometric analysis (reference value: 20.69%); assay type: functional; conditions: dose 2 µmol/L, at 2 µM
LNCaP [6] = assay: Induction of apoptosis in human LNCaP cells assessed as late apoptotic cells level at 1 micromol/L incubated for 24 hrs by Annexin V/PI staining staining based flow cytometry (reference value: 0.940%); assay type: functional; conditions: dose 1 µmol/L, at 1 µM
Progesterone receptor = molecular target: T2, Progesterone receptor (Homo sapiens, UniProt P06401); assay: Induction of downregulation of progesterone receptor in human T47D cells at 10 uM measured after 24 hrs by Western blot analysis; assay type: cell-based
T2 sequence (P06401 whole entry): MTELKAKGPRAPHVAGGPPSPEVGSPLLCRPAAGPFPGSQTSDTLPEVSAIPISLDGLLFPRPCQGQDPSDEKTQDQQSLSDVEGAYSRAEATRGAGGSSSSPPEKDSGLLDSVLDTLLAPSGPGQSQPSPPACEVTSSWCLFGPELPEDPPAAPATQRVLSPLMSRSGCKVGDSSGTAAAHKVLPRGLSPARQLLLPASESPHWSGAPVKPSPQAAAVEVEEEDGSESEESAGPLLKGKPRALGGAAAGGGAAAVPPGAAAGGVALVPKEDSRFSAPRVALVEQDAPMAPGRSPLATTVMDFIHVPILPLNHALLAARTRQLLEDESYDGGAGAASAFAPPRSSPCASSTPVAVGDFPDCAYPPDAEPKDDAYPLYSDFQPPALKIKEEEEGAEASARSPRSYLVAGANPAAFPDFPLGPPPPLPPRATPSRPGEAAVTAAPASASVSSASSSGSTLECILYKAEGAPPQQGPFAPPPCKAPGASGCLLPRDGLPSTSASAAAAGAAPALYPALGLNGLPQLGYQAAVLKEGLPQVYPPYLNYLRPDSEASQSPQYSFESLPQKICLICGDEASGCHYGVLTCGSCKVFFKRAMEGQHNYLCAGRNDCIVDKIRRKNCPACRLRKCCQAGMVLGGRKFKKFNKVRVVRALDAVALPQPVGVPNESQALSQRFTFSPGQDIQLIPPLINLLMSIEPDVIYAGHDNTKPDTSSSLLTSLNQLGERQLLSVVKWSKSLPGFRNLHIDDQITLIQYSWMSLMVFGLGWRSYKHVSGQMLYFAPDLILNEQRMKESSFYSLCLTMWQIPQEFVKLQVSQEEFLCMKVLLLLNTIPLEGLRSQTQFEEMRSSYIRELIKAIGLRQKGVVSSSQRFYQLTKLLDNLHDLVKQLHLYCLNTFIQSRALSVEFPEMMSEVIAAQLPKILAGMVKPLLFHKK

[7] = molecular target: T1, Androgen receptor (Homo sapiens); assay: Selective androgen receptor degradation activity at androgen receptor in human LNCaP cells assessed as down regulation of protein level at 10 uM after 24 hrs in presence of E-64 by Western blot analysis; assay type: cell-based
LNCaP [8] = assay: Induction of apoptosis in human LNCaP cells assessed as necrotic cells level at 2 micromol/L incubated for 24 hrs by Annexin V/PI staining staining based flow cytometry (reference value: 0.694%); assay type: functional; conditions: dose 2 µmol/L, at 2 µM
LNCaP [9] = assay: Induction of apoptosis in human LNCaP cells assessed as necrotic cells level at 1 micromol/L incubated for 24 hrs by Annexin V/PI staining staining based flow cytometry (reference value: 0.694%); assay type: functional; conditions: dose 1 µmol/L, at 1 µM
LNCaP [10] = assay: Induction of apoptosis in human LNCaP cells assessed as late apoptotic cells level at 10 micromol/L incubated for 24 hrs by Annexin V/PI staining staining based flow cytometry (reference value: 0.940%); assay type: functional; conditions: dose 10 µmol/L, at 10 µM
[11] = molecular target: Prostate-specific antigen (Homo sapiens) (UniProt P07288); assay: Induction of downregulation of PSA (unknown orgin) human LNCaP cells at 1 uM after 24 hrs by Western blot analysis
LNCaP [12] = assay: Induction of cell cycle arrest in human LNCaP cells assessed as accumulation at G1 phase at 2 micromol/L after 24 hrs by RNase A/PI-staining based flow cytometric analysis (reference value: 47.99%); assay type: functional; conditions: dose 2 µmol/L, at 2 µM
LNCaP [13] = assay: Induction of apoptosis in human LNCaP cells assessed as viable cells level at 1 micromol/L incubated for 24 hrs by Annexin V/PI staining staining based flow cytometry (reference value: 96.3%); assay type: functional; conditions: dose 1 µmol/L, at 1 µM

Prostate-specific antigen (Homo sapiens), sequence (P07288 whole entry, looked up): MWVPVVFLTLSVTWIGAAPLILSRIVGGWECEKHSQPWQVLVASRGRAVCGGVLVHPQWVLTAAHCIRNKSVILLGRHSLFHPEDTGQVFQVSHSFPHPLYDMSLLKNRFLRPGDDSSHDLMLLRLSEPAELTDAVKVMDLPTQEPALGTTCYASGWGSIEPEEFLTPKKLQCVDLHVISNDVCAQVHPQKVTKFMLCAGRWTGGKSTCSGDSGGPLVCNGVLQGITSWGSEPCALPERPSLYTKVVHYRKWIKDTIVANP

- Activity [2]: Active
- Activity [4]: Active
- Activity (Progesterone receptor): Active
- Activity [7]: Active
- Activity [11]: Active
SMILES: CC1(C)C(=O)N(c2ccc(C#N)c(C(F)(F)F)c2)C(=S)N1CCCCCn1cc(COCCOCCOC(=O)CC23CC4CC(CC(C4)C2)C3)nn1
- Activity (LNCaP [1]): 19.22%
- Activity (LNCaP [3]): 20.07%
- Activity (LNCaP [5]): 12.65%
- Activity (LNCaP [6]): 1.59%
- Activity (LNCaP [8]): 0.774%
- Activity (LNCaP [9]): 0.774%
- Activity (LNCaP [10]): 6.6%
- Activity (LNCaP [12]): 67.54%
- Activity (LNCaP [13]): 96.1%
